Common to all, as to format: in vivo
What all share (details): 250 g/ha, evaluated after 13 days, five-point scale

Experiment [1] relates to IPOHE. The experiment in a line: Post-emergence herbicidal glasshouse test. The method in brief: (§1)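 Herbicidal damage was rated as percentage, banded into a 1–5 scale, 13 days after application. Plants received 250 g/ha unless otherwise stated, sprayed pre-emergence (1 day after sowing) or post-emergence (8 days after sowing), and grew at 24/16° C with 14 h light.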
The subject of experiment [2] is Setaria faberi (SETFA). The experiment in a line: Post-emergence herbicidal glasshouse test. The method in brief: as §1
Experiment [3] deals with Amaranthus retoflexus (AMARE). The experiment in a line: Post-emergence herbicidal glasshouse test. The procedure, abridged: as §1
The test system of experiment [4] is AMAPA. Nature of the experiment: Post-emergence herbicidal glasshouse test.
The test system of experiment [5] is Echinochloa crus-galli (ECHCG). The experiment in a line: Post-emergence herbicidal glasshouse test. The procedure, abridged: as §1
The subject of experiment [6] is IPOHE. Nature of the experiment: Pre-emergence herbicidal glasshouse test. The procedure, abridged: as §1
Experiment [7] has as its system Setaria faberi (SETFA). The experiment in a line: Pre-emergence herbicidal glasshouse test. The method in brief: as §1
The subject of experiment [8] is Amaranthus retoflexus (AMARE). The experiment in a line: Pre-emergence herbicidal glasshouse test. The procedure, abridged: as §1
The subject of experiment [9] is AMAPA. The experiment in a line: Pre-emergence herbicidal glasshouse test.
For experiment [10], the system named is Echinochloa crus-galli (ECHCG). The experiment in a line: Pre-emergence herbicidal glasshouse test. The procedure, abridged:
as §1

We go through 2 compounds from patent US20250243189A1, “HERBICIDAL IMIDAZOLE-CONTAINING COMPOUNDS” (SYNGENTA CROP PROTECTION AG, priority 2022, published 2025).

Turning to `FC(F)(F)c1cn(Cc2ncc(Cl)cn2)c(-c2ccc(Br)s2)n1` [Compound 1.069], the figures for the “percentage damage caused to the plant, IPOHE” value in the experiment on IPOHE [1] and with IPOHE [6] were 4 (4=61-80%) and 5 (5=81-100%), respectively. Further, the “percentage damage caused to the plant, SETFA” value in the experiment on Setaria faberi (SETFA) [2] and with Setaria faberi (SETFA) [7] was 5 (5=81-100%) throughout. Further, the “percentage damage caused to the plant, AMARE” value in [3] and in experiment [8] was 5 (5=81-100%) in each case. Further, the “percentage damage caused to the plant, AMAPA” value in the experiment with AMAPA [4] and in the experiment on AMAPA [9] was 5 (5=81-100%) each time. In addition, the “percentage damage caused to the plant, ECHCG” value in experiment [5] and in experiment [10] was 5 (5=81-100%) in each case.

As for `FC(F)(F)c1cn(Cc2ncc(Cl)cn2)c(-c2cc(Cl)c(Cl)s2)n1` [Compound 1.070], the “percentage damage caused to the plant, IPOHE” value in the experiment with IPOHE [1] is reported as 4 (4=61-80%); in the experiment on IPOHE [6] it was 3 (3=41-60%). In addition, the “percentage damage caused to the plant, SETFA” value in the experiment with Setaria faberi (SETFA) [2] and in the experiment with Setaria faberi (SETFA) [7] was 5 (5=81-100%) throughout. The “percentage damage caused to the plant, AMARE” value in experiment [3] and in experiment [8] was 5 (5=81-100%) in each case. The “percentage damage caused to the plant, AMAPA” value with AMAPA [4] and with AMAPA [9] was 5 (5=81-100%) in each case. Moreover, the “percentage damage caused to the plant, ECHCG” value in [5] and in experiment [10] was 5 (5=81-100%) throughout.
